Results taken from the pKa sets of Baltruschat and Czodrowski (2020).

Row | Structure (SMILES) | pKa
1 | CC(C)NCC(O)COc1ccc(COCCOC(C)C)cc1 (centres undefined) | 9.57
2 | CC(C)(C)NCC(O)c1cc(O)cc(O)c1 (centres undefined) | 8.7
3 | O=c1n(CCCN2CCN(c3cccc(Cl)c3)CC2)nc2ccccn12 | 6.79
4 | CNS(=O)(=O)Cc1ccc2[nH]cc(CCN(C)C)c2c1 | 9.5
5 | COc1ccc2c3c1O[C@H]1[C@@H](O)C=C[C@H]4[C@@H](C2)N(C)CC[C@@]341 | 8.2
6 | CC(CCc1ccccc1)NCC(O)c1ccc(O)c(C(N)=O)c1 (centres undefined) | 7.4
7 | CN(C)CCCN1c2ccccc2Sc2ccccc21 | 9.28
8 | COc1ccc2c(c1)N(C[C@H](C)CN(C)C)c1ccccc1S2 | 9.19
9 | COc1ccc([C@@H]2Sc3ccccc3N(CCN(C)C)C(=O)[C@@H]2OC(C)=O)cc1 | 8.06
10 | CCc1nn(CCCN2CCN(c3cccc(Cl)c3)CC2)c(=O)n1CCOc1ccccc1 | 6.5
11 | CN(C)CCC=C1c2ccccc2CCc2ccccc21 | 9.4
12 | CNCCCC12CCC(c3ccccc31)c1ccccc12 | 10.5
13 | O=C(NCC1CCCCN1)c1cc(OCC(F)(F)F)ccc1OCC(F)(F)F (centres undefined) | 9.3
14 | CC(C)NCC(O)c1ccc(NS(C)(=O)=O)cc1 (centres undefined) | 9.76
15 | CN(C)CCCN1c2ccccc2CCc2ccc(Cl)cc21 | 9.38
16 | CNCCC=C1c2ccccc2CCc2ccccc21 | 10.1
17 | CC(C)(C)NCC(O)COc1cccc2c1C[C@H](O)[C@H](O)C2 (some centres undefined) | 9.67
18 | CNCC[C@@H](Oc1ccccc1C)c1ccccc1 | 10.1
19 | Cc1ccccc1OCC(O)CNCCOc1ccc(C(N)=O)cc1 (centres undefined) | 7.9
20 | OC(CNCC(O)C1CCc2cc(F)ccc2O1)C1CCc2cc(F)ccc2O1 (centres undefined) | 8.22
21 | CC(CN(C)C)CN1c2ccccc2CCc2ccccc21 (centres undefined) | 9.24
22 | Cc1ccc(O)c([C@@H](CCN(C(C)C)C(C)C)c2ccccc2)c1 | 9.8
23 | CCOC(=O)C1(c2ccccc2)CCN(C)CC1 | 8.7
24 | CC(CN1c2ccccc2Sc2ccccc21)N(C)C (centres undefined) | 9.1
25 | CN1CCN2c3ncccc3Cc3ccccc3C2C1 (centres undefined) | 7.3
26 | CCN(C)C(=O)Oc1cccc([C@H](C)N(C)C)c1 | 8.99
27 | CC(C)(C)NCC(O)COc1nsnc1N1CCOCC1 (centres undefined) | 8.8
28 | CC(C)NCC(O)COc1ccc(CCOCC2CC2)cc1 (centres undefined) | 9.21
29 | CN1CCCC(n2nc(Cc3ccc(Cl)cc3)c3ccccc3c2=O)CC1 (centres undefined) | 9.54
